Assay results taken from PubChem BioAssay (NCI).
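All cell lines were grown in 96-well plates and treated with compound for 48 hours. TGI: total growth inhibition.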

What was measured:
Assay in all cases: NCI anticancer screen, dose series, 48 h
786-0 renal = tested on: 786-0 renal
A498 renal = tested on: A498 renal
A549 NSCLC = tested on: A549 NSCLC
ACHN renal = tested on: ACHN renal
CAKI-1 renal = tested on: CAKI-1 renal
CCRF-CEM leukemia = tested on: CCRF-CEM leukemia
COLO 205 colon = tested on: COLO 205 colon
DU-145 prostate = tested on: DU-145 prostate
EKVX NSCLC = tested on: EKVX NSCLC
HCC-2998 colon = tested on: HCC-2998 colon
HCT-116 colon = tested on: HCT-116 colon
HCT-15 colon = tested on: HCT-15 colon
HL-60(TB) leukemia = tested on: HL-60(TB) leukemia
HOP-62 NSCLC = tested on: HOP-62 NSCLC
HOP-92 NSCLC = tested on: HOP-92 NSCLC
HS 578T breast = tested on: HS 578T breast
HT29 colon = tested on: HT29 colon
IGROV1 ovarian = tested on: IGROV1 ovarian
K-562 leukemia = tested on: K-562 leukemia
KM12 colon = tested on: KM12 colon
LOX IMVI melanoma = tested on: LOX IMVI melanoma
M14 melanoma = tested on: M14 melanoma
MALME-3M melanoma = tested on: MALME-3M melanoma
MCF7 breast = tested on: MCF7 breast
MDA-MB-231 breast = tested on: MDA-MB-231 breast
MDA-N = tested on: MDA-N
MOLT-4 leukemia = tested on: MOLT-4 leukemia
NCI-H226 lung = tested on: NCI-H226 lung
NCI-H23 lung = tested on: NCI-H23 lung
NCI-H460 lung = tested on: NCI-H460 lung
NCI-H522 lung = tested on: NCI-H522 lung
NCI/ADR-RES ovarian = tested on: NCI/ADR-RES ovarian
OVCAR-3 ovarian = tested on: OVCAR-3 ovarian
OVCAR-4 ovarian = tested on: OVCAR-4 ovarian
OVCAR-8 ovarian = tested on: OVCAR-8 ovarian
PC-3 prostate = tested on: PC-3 prostate
RPMI-8226 leukemia = tested on: RPMI-8226 leukemia
RXF 393 renal = tested on: RXF 393 renal
SF-268 CNS = tested on: SF-268 CNS
SF-295 CNS = tested on: SF-295 CNS
SF-539 CNS = tested on: SF-539 CNS
SK-MEL-2 melanoma = tested on: SK-MEL-2 melanoma
SK-MEL-28 melanoma = tested on: SK-MEL-28 melanoma
SK-MEL-5 melanoma = tested on: SK-MEL-5 melanoma
SK-OV-3 ovarian = tested on: SK-OV-3 ovarian
SN12C renal = tested on: SN12C renal
SNB-19 CNS = tested on: SNB-19 CNS
SNB-75 CNS = tested on: SNB-75 CNS
SR leukemia = tested on: SR leukemia
SW-620 colon = tested on: SW-620 colon
T-47D breast = tested on: T-47D breast
TK-10 renal = tested on: TK-10 renal
U251 CNS = tested on: U251 CNS
UACC-257 melanoma = tested on: UACC-257 melanoma
UACC-62 melanoma = tested on: UACC-62 melanoma
UO-31 renal = tested on: UO-31 renal
BT-549 breast = tested on: BT-549 breast
OVCAR-5 ovarian = tested on: OVCAR-5 ovarian

Measured: TGI

Clc1ccc(C(SCc2ccccc2)SCc2ccccc2)cc1
not listed: BT-549 breast | OVCAR-5 ovarian
> 10 µM: all other assays above

Cc1cc(S(=O)(=O)Nc2nc(N)nc(N(C)C)n2)c(SCC(=O)O)cc1Cl
not listed: HS 578T breast | MDA-MB-231 breast | UACC-62 melanoma
> 10 µM: all other assays above
